Consider one molecule from patent EP0768085A1, “ANTIBACTERIAL AGENT” (DAIICHI PHARMACEUTICAL CO., LTD., priority 1994, dated 1996).

Broadly, the MIC is the least concentration at which growth counts as inhibited. As a reminder, the LD50 is the dose expected to kill half of the subjects tested. A low value points to a more toxic substance.

Data set [1] relates to various bacterial strains. Nature of the data set: MIC by microliquid dilution method (Example 10, Table 45). It counts as cell-based. The procedure:
Through use of a ketonitrile derivative of the present invention (Compound No. 4) as a sample, minimum inhibitory concentrations (MIC) of respective bacterial strains were determined by a microliquid dilution method in accordance with the standard procedure authorized by Japan Chemotherapy Association ["Chemotherapy", 29, 76-79, 1981, under the heading "Revised Measurement of Minimum Inhibitory Concentration (MIC)"]. The samples were dissolved in dimethylsulfoxide and diluted with the same amount of sterilized distilled water to prepare a bulk sample liquid of 1,000 µg/ml. The bulk sample was cultured in Mueller-Hinton broth at 37°C for 18 hours.

For data set [2], the system named is Staphylococcus aureus 209-P. Nature of the data set: Antibacterial activity (IC), Mueller-Hinton broth, 96-well microplate (Example 4, Table 39). It counts as cell-based. The following applies: 37°C, 18 hours. Summed up:
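S. aureus 209-P at 10^6 CFU/ml in Mueller-Hinton broth, compound (DMSO/water) at final 100, 10 and 1 µg/ml, 18 h at 37°C. Growth inhibition scored by turbidity; IC reported as ≤100, ≤10 or ≤1 µg/ml bands.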

Data set [3] is described as follows: in vivo. The following applies: mouse, oral administration, single dose, suspended in aqueous 0.5% CMC solution, male mice, observed for 14 days. The method, then: Acute toxicity (LD50) of a ketonitrile derivative of the present invention (Compound No. 4) was tested using male mice (Slc:ddY, 5 weeks old). To groups of each 5 mice, the compounds suspended in aqueous 0.5% CMC solution were forcibly dosed orally at a single time so that the final dosages of 707, 1,000, 1,414, and 2,000 mg/kg were attained. […] As a result, LD50 value under conditions of oral administration was estimated to be higher than 2,000 mg/kg. Thus, the compound was confirmed to be quite non-toxic.
To groups of each 5 mice, the compounds suspended in aqueous 0.5% CMC solution were forcibly dosed orally at a single time so that the final dosages of 500, 1,000, 1,500, and 2,000 mg/kg were attained. […] As a result, the LD50 value was estimated to be higher than 2,000 mg/kg. Thus, the compounds were confirmed to be quite non-toxic.

Data set [4] deals with Staphylococcus aureus TI-1. Nature of the data set: Antibacterial activity (IC), broth microplate as in Example 4 (Example 5, Table 40). It counts as cell-based. The following applies: TI1, 18 h. In a few lines: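 S. aureus TI-1 at 10^6 CFU/ml in Mueller-Hinton broth exposed to compound at final 100, 10 and 1 µg/ml (DMSO/water stock), 37 °C for 18 h. Growth inhibition judged by turbidity; IC reported as ≤100, ≤10 or ≤1 µg/ml bands.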

The subject of data set [5] is Pasteurella multocida (Kobe-6). Nature of the data set: Antibacterial activity (IC), broth microplate as in Example 4 (Example 6, Table 41). It counts as cell-based. To be noted: 18 h, origin pig. The method, then: A suitable amount of a sample was dissolved in dimethylsulfoxide (DMSO), and the resultant solution was diluted with the same amount of sterilized distilled water to prepare a bulk sample of 1,000 µg/ml. Mueller-Hinton broth (product of DIFCO) was dispensed into each well of 96-well microplate. Thereafter, the bulk specimen was added to the first well of a row, and successively diluted (10-fold each time) with sterilized distilled water. Separately, a bacterial cell suspension for the test (Staphylococcus aureus 209-P) which had been cultured in the above-mentioned broth overnight at 37°C was inoculated to each well so that the final inoculation amount of 10^6 CFU/ml was attained. The final concentrations of the samples were 100, 10, and 1 µg/ml.
The antibacterial action was evaluated by the inhibitory concentration (hereinafter abbreviated as IC) at which propagation of the bacteria cultured at 37°C for 18 hours was inhibited. Inhibition was determined by the turbidity of the medium. The expressions "IC≤100", "≤10", and "≤1" indicate that MIC-equivalent values obtained at the succesive […] dilution of the sample are 100-10 µg/ml, 10-1 µg/ml, and not more than 1 µg/ml, respectively. […] (In the subsequent Examples, the same rule applies correspondingly.) Table 39
In a manner similar to that described in Example 4, antibacterial activity of the invention compound was determined. The bacterium used for the test was Pasteurella Kobe-6 (origin: pig; Pasteurella multocida).

The test system of data set [6] is Staphylococcus aureus. Nature of the data set: MIC by agar plate dilution method (Example 9, Table 44). To be noted: 18 h. The format is cell-based. The method, then: (§1) Through use of a ketonitrile derivative of the present invention (Compound No. 4) as a sample, minimum inhibitory concentrations (MIC) of Staphylococcus aureus and Pasteurella from cattle were determined by an agar plate dilution method in accordance with the standard procedure authorized by Japan Chemotherapy Association ["Chemotherapy", 29, 76-79, 1981, under the heading "Revised Measurement of Minimum Inhibitory Concentration (MIC)"]. The samples were dissolved in dimethylsulfoxide and diluted with the same amount of sterilized distilled water to prepare a bulk sample liquid of 1,000 µg/ml. The bulk was diluted into a series of 2-fold dilutions using sterilized distilled water.
(§2) Separately, the bacterial cell suspensions for the test shown in Table 18 were cultured in Mueller-Hinton broth (DIFCO) at 37°C for 18-20 hours in advance. They were controlled to have a bacterial amount of 10^6 CFU/ml by use of Mueller-Hinton broth. The thus-controlled liquids were inoculated to a Muller-Hinton agar plate containing the sample, followed by culturing at 37°C for 18 hours. The concentration at which bacterial growth was no longer observed was taken as the MIC.

For data set [7], the system named is Pasteurella from cattle. The description is as above. The format is cell-based. To be noted: 18 h. The method, then: as §1, §2

Values after ≈ are worked out from the molar mass of the structure shown. Read-outs that look alike come from different tables or passages of the source.

With `CC(Oc1ccc(Oc2ncc(C(F)(F)F)cc2Cl)cc1)C(=O)C(C#N)c1ccc(Cl)c(Cl)c1` (stereo not drawn) [Compound No. 4, 4-[4-(3-chloro-5-trifluoromethyl-2-pyridyloxy)phenoxy]-2-(3,4-dichlorophenyl)-3-oxopentanonitrile], the minimal inhibitory concentration (MIC) came out at 3.13 µg/mL (≈ 5.91 µM) in data set [1] (18 h, Staphylococcus aureus SMITH, read-out: MIC); 6.25 µg/mL (≈ 11.8 µM) in data set [1] (18 h, Staphylococcus epidermis 56556, read-out: MIC); 12.5 µg/mL (≈ 23.6 µM) in data set [1] (18 h, Streptococcus mitis 11D 685, read-out: MIC); 6.25 µg/mL (≈ 11.8 µM) in data set [1] (18 h, Streptococcus pyogenes G-36, read-out: MIC); 3.13 µg/mL (≈ 5.91 µM) in data set [1] (ATCC6633, 18 h, Bacillus subtilis ATCC 6633, read-out: MIC); 6.25 µg/mL (≈ 11.8 µM) in data set [1] (ATCC19433, 18 h, Enterococcus faecalis ATCC 19433, read-out: MIC). In addition, the minimum inhibitory concentration (MIC) in data set [1] (Staphylococcus aureus M5-1 (Methicillin-resistant Staphylococcus aureus)) was 3.13 µg/mL (≈ 5.91 µM); in data set [1] (Staphylococcus aureus M5-2 (Methicillin-resistant Staphylococcus aureus)) it was 3.13 µg/mL (≈ 5.91 µM); in data set [2], ≤ 1 µg/mL; in data set [4], ≤ 1 µg/mL; in data set [5] it was 10 to 100 µg/mL (≈ 18.9 to 189 µM); in data set [6] (209P, Staphylococcus aureus 209P, origin Standard strain), 1.56 µg/mL (≈ 2.94 µM). The minimal inhibitory concentration (MIC) turned out to be 3.13 µg/mL (≈ 5.91 µM) in data set [6] (Staphylococcus aureus 1SS1, origin Chicken); 3.13 µg/mL (≈ 5.91 µM) in data set [6] (Staphylococcus aureus 3-2, origin Pig); 6.25 µg/mL (≈ 11.8 µM) in data set [6] (Staphylococcus aureus TI-1, origin Cattle); 1.56 µg/mL (≈ 2.94 µM) in data set [7] (Pasteurella Multosida 1F-17, origin Cattle); 6.25 µg/mL (≈ 11.8 µM) in data set [7] (Pasteurella haemolytica 1F-15, origin Cattle). The LD50 at 336 h in data set [3] was > 2000 mg/kg.
